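Grown in 96-well plates, cells were treated for 48 hours with each compound at five concentrations. Insufficient inhibition: endpoint recorded as highest concentration tested. GI50 marks 50% less growth. TGI marks complete inhibition of growth.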

Here are results for 13 compounds from PubChem BioAssay (NCI).

Holding throughout (assay): NCI anticancer screen, dose series, 48 h
Test [1] relates to DU-145 prostate.
For test [2], the system named is HCC-2998 colon.
For test [3], the system named is LOX IMVI melanoma.
In test [4] the test system is MCF7 breast.
The subject of test [5] is OVCAR-4 ovarian.
Test [6] deals with OVCAR-5 ovarian.
Test [7] has as its system OVCAR-8 ovarian.
The test system of test [8] is PC-3 prostate.
The test system of test [9] is SK-MEL-2 melanoma.
Test [10] deals with SF-539 CNS.

Regarding `Fc1ccc(C(OCCN2CCN(CCCc3ccccc3)CC2)c2ccc(F)cc2)cc1`, the TGI amounted to 19.5 µM in [1]; 11.7 µM in test [2]; 15.6 µM in test [3]; 18.9 µM in [4]; 15.8 µM in test [5]; 15.7 µM in [6]. Moreover, the TGI in [7] was 13 µM; in [8], 12 µM; in test [9] it was 12.2 µM.
As for `CN1CCC(CNc2cc(C3(C(=O)Nc4cc(C(=O)Nc5ccc(Cl)c(C(F)(F)F)c5)ccc4F)CC3)ncn2)CC1`, the GI50 was 3.99 µM in [1]; 2.39 µM in [2]; 1.97 µM in [4]; 13.6 µM in test [5]; 3.28 µM in [6]; 3.72 µM in test [7]. Besides, the GI50 in test [8] is 1.04 µM; in test [10], 1.61 µM; in [9], 1.9 µM. In addition, the TGI is 15.8 µM in test [1]; 5.22 µM in test [2]; 5.24 µM in test [4]; 39.5 µM in [5]; 11.4 µM in test [6]; 14.9 µM in [7]. In addition, the TGI stood at 3.3 µM in test [8], 3.19 µM in [10] and 4.02 µM in test [9].
As for `CC(C)(C)c1ccccc1N1C(=O)c2ccc3c4c(ccc(c24)C1=O)N(c1ccccc1C(C)(C)C)C3=O`, the TGI in test [1], in test [2], in test [4], in test [5], in test [6] and in test [7] was > 100 µM in each case. Moreover, the TGI in test [8], in [10] and in [9] was > 100 µM each time.
As for `S=C1c2ccc(Cl)cc2-n2cnnc2C2CSCN12` (centres undefined), the TGI in [1], in test [2], in [3], in [4], in [5] and in [6] was > 100 µM in each case. Moreover, the TGI in [7], in test [8] and in test [9] was > 100 µM throughout.
For the compound `O=C(/C=C(/C=C/c1ccc2[nH]ccc2c1)OB(F)F)/C=C/c1ccc2[nH]ccc2c1`, the GI50 in [1] was 1.64 µM; in test [4] it was 0.376 µM; in test [5], 0.726 µM; in [6], 2.75 µM; in test [7], 2.51 µM; in test [8], 1.49 µM. Further, the figures for the GI50 in [10] and in [9] were 2.68 µM and 4.6 µM, respectively. Moreover, the TGI in test [1] was 4.2 µM; in test [4], 15 µM; in test [5], 6.46 µM; in test [6], > 100 µM; in test [7], > 100 µM; in test [8] it was > 100 µM. Moreover, the figures for the TGI in test [10] and in [9] were 9.29 µM and 86.2 µM, respectively.
Take `NC(=O)CNC(=O)[C@@H]1CC(OCCC(=O)O)CN1C(=O)C1CCCN1C(=O)OCc1ccccc1` (some centres undefined): the TGI in test [1], in [3], in [4], in [5], in test [6] and in [7] was > 100 µM in each case. Also, the TGI in test [8] and in test [9] was > 100 µM throughout.
For `c1ncn(C23C4C5C6C4C2C6C53)n1` (centres undefined), the TGI in [1], in test [2], in test [3], in test [4], in test [6] and in [7] was > 100 µM each time. Besides, the TGI in [8], in test [10] and in test [9] was > 100 µM each time.
For `N#CCCN(CCC#N)c1ccc(/C=C2\N=C(c3ccccc3)N(c3ccc(F)cc3)C2=O)cc1`, the TGI in [1], in test [3], in [4], in test [5], in [6] and in test [7] was > 100 µM throughout. Further, the TGI in test [8], in test [10] and in test [9] was > 100 µM in each case.
Turning to `C[C@@H]1OC(=O)C[C@H]2CC(=O)N(CCC3CN(C(=O)OCc4ccccc4)c4ccccc43)C[C@@H]21` (some centres undefined), the TGI in [1], in [2], in [4], in test [5], in test [6] and in test [7] was > 100 µM throughout. Also, the TGI in test [8] and in test [9] was > 100 µM each time.
In the case of `C[C@H](c1ccccc1)N1C(=O)[C@@H](O)[C@H]1[C@H](CO)OCc1ccccc1`, the TGI in test [1], in [3], in [4], in test [5], in [6] and in test [7] was > 100 µM each time. Also, the TGI in test [8] and in [9] was > 100 µM each time.
For the compound `CC(=O)O[C@H]1CC(C)(C)C(=C=C/C(C)=C/C=C/C=C/C=C(C)/C=C2C=C(/C=C/[C@@]34O[C@]3(C)C[C@@H](O)CC4(C)C)C(=O)O/2)[C@](C)(O)C1`, the TGI was > 100 µM in test [1]; > 100 µM in [2]; 20.7 µM in test [4]; > 100 µM in test [5]; 68.7 µM in [6]; 25.2 µM in test [7]. In addition, the TGI turned out to be 15.9 µM in test [8], 38 µM in [10] and 17.6 µM in [9].
For the compound `Cc1ccc2nc(SCC(=O)N=Nc3c(O)[nH]c4ccccc34)n(-c3ccccc3)c(=O)c2c1`, the TGI in test [1] came out at 26.2 µM; in [2], 28.6 µM; in [3], 29.8 µM; in [4] it was 29.6 µM; in test [5], 25.9 µM; in test [6], 29.3 µM. Moreover, the TGI in [8] stood at 36.1 µM; in [10], 19 µM; in test [9], 13.2 µM.
For the compound `CCOC(=O)c1ccc(-n2[nH]nc(C(N)=O)c2=O)cc1`, the TGI in test [1], in test [2], in test [4], in test [5], in test [6] and in test [7] was > 100 µM throughout. For the same compound, the TGI in test [8] and in test [9] was > 100 µM throughout.
